Source: publication PMC6112376, “Comprehensive Analyses and Prioritization of Tox21 10K Chemicals Affecting Mitochondrial Function by in-Depth Mechanistic Studies” (Environmental Health Perspectives, 2018)
Like-named read-outs stand apart in the source and are kept apart here.

Key:
HepG2 cells [1] = assay: cells; conditions: Homo sapiens; for Emax: HepG2, read-out: MMP assays efficacy (%) HepG2
[2] = test system: Caenorhabditis elegans strain PE255; conditions: PE255 [sur-5::luc+::gfp; rol-6(su1006)], Caenorhabditis elegans, in vivo
[3] = test system: Nrf2/ARE (ARE-bla HepG2 cells); assay: ARE β-lactamase reporter gene assay; assay type: cell-based, human; conditions: 16 h incubation, mean±SD of three experiments
HepG2 cells [4] = assay: ROS-Glo hydrogen peroxide (ROS) assay; assay type: cell-based, human
HepG2 cells [5] = assay: Intracellular ATP content (cell viability) assay; assay type: cell-based, human; conditions: Homo sapiens, HepG2, 40 h
rat primary hepatocytes [6] = test system: rat primary hepatocytes
[7] = test system: p53 (p53-bla HCT-116 cells); assay: p53 β-lactamase reporter gene assay; assay type: cell-based, human; conditions: 16 h incubation, mean±SD of three experiments
HepG2 cells [8] = conditions: cited from earlier work; for IC50: read-out: MMP assays IC50 (µM) qHTS-HepG2
[9] = test system: Caenorhabditis elegans strain PE255; assay: In vivo C. elegans ATP status assay; conditions: for minimal effective concentration: Caenorhabditis elegans, read-out: LEC LUM: lowest effect concentration for luminescence, a measure of nematode ATP content
[10] = test system: isolated rat liver mitochondria; assay: Oxygen consumption, Clark-type oxygen electrode; assay type: biochemical
rat primary hepatocytes [11] = assay: MMP assay in rat primary hepatocytes; conditions: Rattus norvegicus, Hepatocyte
hNSC = assay: MMP assay in human neural stem cells (hNSC); assay type: cell-based; conditions: Homo sapiens, Neural stem cell, 1 h, read-out: hNSC IC50 (MMP)
[12] = test system: Caenorhabditis elegans (Bristol N2); assay: C. elegans larval development and growth assay; conditions: for minimal effective concentration: Caenorhabditis elegans, read-out: LEC EXT: lowest effect concentration for extinction, a measure of nematode size
[13] = test system: HeLa cells expressing YFP-Parkin; assay: Parkin translocation assay; assay type: cell-based, human
[14] = test system: Caenorhabditis elegans (Bristol N2); conditions: Bristol N2 (wild type), Caenorhabditis elegans, in vivo
[15] = HepG2, 1 h, read-out: HepG2 IC50 Galactose (MMP)
[16] = HepG2, 1 h, read-out: HepG2 IC50 Glucose (MMP)
[17] = HepG2, read-out: MMP assays IC50 (µM) HepG2
[18] = read-out: ATP (HepG2, galactose) IC50
[19] = read-out: ATP (HepG2, glucose) IC50
[20] = 1 h, read-out: Rat hepatocytes IC50 (MMP)
[21] = read-out: MMP assays IC50 (µM) Rat Hepatocytes

For `Nc1ccc(N)c2c1C(=O)c1ccccc1C2=O` [1,4-Diaminoanthraquinone], the IC50 (HepG2 cells [1]; [15]) was 1.13 µM, the IC50 (HepG2 cells [1]; [16]) was 0.77 µM and the IC50 (HepG2 cells [1]; [17]) was 0.22 µM. For the same compound, the Emax (HepG2 cells [1]) was 81%, the “LEC (lowest effect concentration), ATP assay” value [2] was ≤ 10 µM and the EC50 ([3]; Homo sapiens, HepG2, read-out: ARE (HepG2) EC50) was 22.9 ± 27.4 µM. The “ROS (HepG2) EC50” value (HepG2 cells [4]) was “Inactive”, the IC50 (HepG2 cells [5]; [18]) was 22.3 µM and the IC50 (HepG2 cells [5]; [19]) was 24.7 µM. The “MMP assays efficacy (%) Rat Hepatocytes” value (rat primary hepatocytes [6]) was -93±8%, the “Rat hepatocytes (efficacy) (MMP)” value (rat primary hepatocytes [6]) was 3.79±1.62 ( −118±24.7 ) % and the EC50 ([7]; Homo sapiens) was 35.7 ± 2.41 µM. For the same compound, the “MMP assays efficacy (%) qHTS-HepG2” value (HepG2 cells [8]) was -82±13%, the IC50 (HepG2 cells [8]) was 0.03 ± 0.01 µM and the “LUM: mean difference in luminescence (ATP content) relative to plate controls” value ([9]; 0.5 µM) was 0.03036. For the same compound, the “LUM: mean difference in luminescence (ATP content) relative to plate controls” value ([9]; 1 µM) was 0.08336, the “LUM: mean difference in luminescence (ATP content) relative to plate controls” value ([9]; 5 µM) was 0.4462 and the “LUM: mean difference in luminescence (ATP content) relative to plate controls” value ([9]; 10 µM) was 0.9963. The “LUM: mean difference in luminescence (ATP content) relative to plate controls” value ([9]; 25 µM) was 1.526, the “LUM: mean difference in luminescence (ATP content) relative to plate controls” value ([9]; 50 µM) was 1.59 and the “LUM: mean difference in luminescence (ATP content) relative to plate controls” value ([9]; 75 µM) was 2.063. The “LUM: mean difference in luminescence (ATP content) relative to plate controls” value ([9]; 100 µM) was 2.457, the minimal effective concentration [9] was 5 µM and the “Potential Mechanism” value [10] was “Inactive”. The “I-ADP, % of control (O2 consumption rate)” value ([10]; 20 µM) was 89 (44.1) % of control, the “I-sub, % of control (O2 consumption rate)” value ([10]; 20 µM) was 103 (14.2) % of control and the “II-ADP, % of control (O2 consumption rate)” value (“II-ADP, % of control” below) ([10]; 20 µM) was 90 (80.2) % of control. The “II-sub, % of control (O2 consumption rate)” value (“II-sub, % of control” below) ([10]; 20 µM) was 100 (27.1) % of control, the “I-ADP, % of control (O2 consumption rate)” value ([10]; 100 µM) was 82 (23.4) % of control and the “I-sub, % of control (O2 consumption rate)” value ([10]; 100 µM) was 95 (11.4) % of control. For the same compound, the “II-ADP, % of control” value ([10]; 100 µM) was 97 (35.2) % of control, the “II-sub, % of control” value ([10]; 100 µM) was 95 (14.1) % of control and the IC50 (rat primary hepatocytes [11]; [20]) was 3.79 µM. The IC50 (rat primary hepatocytes [11]; [21]) was 1.24 ± 0.76 µM, the IC50 (hNSC) was 0.15 µM and the “EXT: mean difference in nematode size relative to plate controls” value ([12]; 0.5 µM) was 0.03102. The “EXT: mean difference in nematode size relative to plate controls” value ([12]; 1 µM) was 0.01427, the “EXT: mean difference in nematode size relative to plate controls” value ([12]; 5 µM) was 0.05881 and the “EXT: mean difference in nematode size relative to plate controls” value ([12]; 10 µM) was -0.04953. For the same compound, the “EXT: mean difference in nematode size relative to plate controls” value ([12]; 25 µM) was 0.1095, the “EXT: mean difference in nematode size relative to plate controls” value ([12]; 50 µM) was 0.2596 and the “EXT: mean difference in nematode size relative to plate controls” value ([12]; 75 µM) was 0.3422. For the same compound, the “EXT: mean difference in nematode size relative to plate controls” value ([12]; 100 µM) was 0.4149, the minimal effective concentration [12] was 25 µM and the Parkin recruitment [13] was “Inactive”.

In the case of `O=C1c2ccccc2C(=O)C1C(=O)C(c1ccccc1)c1ccc(Cl)cc1` (stereo not shown) [Chlorophacinone], the “LEC (lowest effect concentration), larval growth assay” value [14] is reported as < 10 µM, the IC50 (HepG2 cells [1]; [15]) is reported as 46.3 µM and the IC50 (HepG2 cells [1]; [16]) is reported as 27.1 µM. The IC50 (HepG2 cells [1]; [17]) was 3.55 µM, the Emax (HepG2 cells [1]) was 109% and the “LEC (lowest effect concentration), ATP assay” value [2] was < 10 µM. For the same compound, the “ARE (HepG2) EC50” value [3] was “Inactive”, the EC50 (HepG2 cells [4]; Homo sapiens, HepG2, 2 h, read-out: ROS (HepG2) EC50) was 41.7 µM and the IC50 (HepG2 cells [5]; [18]) was 41.4 µM. For the same compound, the IC50 (HepG2 cells [5]; [19]) was 48.2 µM, the “MMP assays efficacy (%) Rat Hepatocytes” value (rat primary hepatocytes [6]) was -86±11% and the “Rat hepatocytes (efficacy) (MMP)” value (rat primary hepatocytes [6]) was 10.5±4.28 ( −97.8±13.3 ) %. For the same compound, the “p53 (HCT-116) EC50” value [7] was “Inactive”, the “MMP assays efficacy (%) qHTS-HepG2” value (HepG2 cells [8]) was -103±9% and the IC50 (HepG2 cells [8]) was 0.64 ± 0.25 µM. The “LUM: mean difference in luminescence (ATP content) relative to plate controls” value ([9]; 0.5 µM) was 0.2858, the “LUM: mean difference in luminescence (ATP content) relative to plate controls” value ([9]; 1 µM) was 0.2624 and the “LUM: mean difference in luminescence (ATP content) relative to plate controls” value ([9]; 5 µM) was 0.9157. For the same compound, the “LUM: mean difference in luminescence (ATP content) relative to plate controls” value ([9]; 10 µM) was 0.9688, the “LUM: mean difference in luminescence (ATP content) relative to plate controls” value ([9]; 25 µM) was 0.9113 and the “LUM: mean difference in luminescence (ATP content) relative to plate controls” value ([9]; 50 µM) was 1.406. For the same compound, the “LUM: mean difference in luminescence (ATP content) relative to plate controls” value ([9]; 75 µM) was 1.423, the “LUM: mean difference in luminescence (ATP content) relative to plate controls” value ([9]; 100 µM) was 1.347 and the minimal effective concentration [9] was 5 µM. For the same compound, the “Potential Mechanism” value [10] was “Uncoupler at low concentrations (0.8-4 µM), and Uncoupler + inhibitor at high concentrations (20 -100 µM)”, the “I-ADP, % of control (O2 consumption rate)” value ([10]; 0.16 µM) was 104 (45.2) % of control and the “I-sub, % of control (O2 consumption rate)” value ([10]; 0.16 µM) was 112 (14.7) % of control. The “II-ADP, % of control” value ([10]; 0.16 µM) was 97 (66.0) % of control, the “II-sub, % of control” value ([10]; 0.16 µM) was 97 (20.2) % of control and the “I-ADP, % of control (O2 consumption rate)” value ([10]; 0.8 µM) was 95 (41.2) % of control. The “I-sub, % of control (O2 consumption rate)” value ([10]; 0.8 µM) was 111 (14.5) % of control, the “II-ADP, % of control” value ([10]; 0.8 µM) was 107 (72.3) % of control and the “II-sub, % of control” value ([10]; 0.8 µM) was 125 (26.1) % of control. For the same compound, the “I-ADP, % of control (O2 consumption rate)” value ([10]; 4 µM) was 97 (42.2) % of control, the “I-sub, % of control (O2 consumption rate)” value ([10]; 4 µM) was 182 (23.9) % of control and the “II-ADP, % of control” value ([10]; 4 µM) was 87 (58.8) % of control. For the same compound, the “II-sub, % of control” value ([10]; 4 µM) was 203 (42.5) % of control, the “I-ADP, % of control (O2 consumption rate)” value ([10]; 20 µM) was 72 (31.3) % of control and the “I-sub, % of control (O2 consumption rate)” value ([10]; 20 µM) was 285 (37.3) % of control. For the same compound, the “II-ADP, % of control” value ([10]; 20 µM) was 39 (26.3) % of control, the “II-sub, % of control” value ([10]; 20 µM) was 150 (31.3) % of control and the “I-ADP, % of control (O2 consumption rate)” value ([10]; 100 µM) was 21 (11.4) % of control. The “I-sub, % of control (O2 consumption rate)” value ([10]; 100 µM) was 110 (14.8) % of control, the “II-ADP, % of control” value ([10]; 100 µM) was 15 (9.9) % of control and the “II-sub, % of control” value ([10]; 100 µM) was 61 (13.1) % of control. The IC50 (rat primary hepatocytes [11]; [20]) was 10.5 µM, the IC50 (rat primary hepatocytes [11]; [21]) was 4.65 ± 4.78 µM and the IC50 (hNSC) was 12.6 µM. The “EXT: mean difference in nematode size relative to plate controls” value ([12]; 0.5 µM) was 0.2337, the “EXT: mean difference in nematode size relative to plate controls” value ([12]; 1 µM) was 0.388 and the “EXT: mean difference in nematode size relative to plate controls” value ([12]; 5 µM) was 0.7901. For the same compound, the “EXT: mean difference in nematode size relative to plate controls” value ([12]; 10 µM) was 1.11, the “EXT: mean difference in nematode size relative to plate controls” value ([12]; 25 µM) was 1.457 and the “EXT: mean difference in nematode size relative to plate controls” value ([12]; 50 µM) was 1.812. For the same compound, the “EXT: mean difference in nematode size relative to plate controls” value ([12]; 75 µM) was 1.667, the “EXT: mean difference in nematode size relative to plate controls” value ([12]; 100 µM) was 1.868 and the minimal effective concentration [12] was 1 µM. For the same compound, the Parkin recruitment [13] was “Inactive”.
